# Assay results reported in patent US6342523B1, “3,4,5-trisubstituted aryl nitrone compounds, pharmaceutical compositions containing the same and methods for treating inflammation” (Centaur Pharmaceuticals, Inc., priority 1998, dated 2002).
# Assays:
# cyclooxygenase 2 (COX-2) = target: T1, cyclooxygenase 2 (COX-2) (Ovis aries, UniProt P79208); assay: Inhibition of COX-2 (arachidonic acid incubation, PGE2 formation by malondialdehyde quantitation); settings: 300 μM; COX-2 derived from sheep placenta
# T1 sequence (P79208 17-603): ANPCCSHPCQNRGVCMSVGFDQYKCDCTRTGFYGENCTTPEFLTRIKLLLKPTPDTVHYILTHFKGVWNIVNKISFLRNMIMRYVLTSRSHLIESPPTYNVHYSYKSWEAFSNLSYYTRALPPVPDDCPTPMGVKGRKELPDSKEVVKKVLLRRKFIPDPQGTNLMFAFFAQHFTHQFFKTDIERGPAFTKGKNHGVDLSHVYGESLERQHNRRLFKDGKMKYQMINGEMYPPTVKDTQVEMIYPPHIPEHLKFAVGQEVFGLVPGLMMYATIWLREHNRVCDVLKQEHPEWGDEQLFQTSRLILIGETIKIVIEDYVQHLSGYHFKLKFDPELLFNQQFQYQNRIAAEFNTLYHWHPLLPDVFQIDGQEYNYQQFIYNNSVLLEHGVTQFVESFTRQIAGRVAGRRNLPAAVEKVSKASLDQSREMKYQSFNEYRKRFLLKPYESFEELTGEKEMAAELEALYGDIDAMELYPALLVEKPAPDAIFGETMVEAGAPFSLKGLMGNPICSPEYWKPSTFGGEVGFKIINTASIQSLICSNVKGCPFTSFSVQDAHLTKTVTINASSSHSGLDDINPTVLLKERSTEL
# Protocol: (§1) The inhibition of COX-I was measured by incubating arachidonic acid with COX-1 derived from ram seminal vesicles. The inhibition of COX-2 was measured by incubation of arachidonic acid with COX-2 derived from sheep placenta. […] In each assay, the formation of prostaglandin E2 (PGE2) was measured by spectrophotometric quantitation of malondialdehyde.
# cyclooxygenase 1 (COX-1) = target: T2, cyclooxygenase 1 (COX-1) (Ovis aries, UniProt P05979); assay: Inhibition of COX-1 (arachidonic acid incubation, PGE2 formation by malondialdehyde quantitation); settings: 300 μM; COX-1 derived from ram seminal vesicles
# T2 sequence (P05979 25-600): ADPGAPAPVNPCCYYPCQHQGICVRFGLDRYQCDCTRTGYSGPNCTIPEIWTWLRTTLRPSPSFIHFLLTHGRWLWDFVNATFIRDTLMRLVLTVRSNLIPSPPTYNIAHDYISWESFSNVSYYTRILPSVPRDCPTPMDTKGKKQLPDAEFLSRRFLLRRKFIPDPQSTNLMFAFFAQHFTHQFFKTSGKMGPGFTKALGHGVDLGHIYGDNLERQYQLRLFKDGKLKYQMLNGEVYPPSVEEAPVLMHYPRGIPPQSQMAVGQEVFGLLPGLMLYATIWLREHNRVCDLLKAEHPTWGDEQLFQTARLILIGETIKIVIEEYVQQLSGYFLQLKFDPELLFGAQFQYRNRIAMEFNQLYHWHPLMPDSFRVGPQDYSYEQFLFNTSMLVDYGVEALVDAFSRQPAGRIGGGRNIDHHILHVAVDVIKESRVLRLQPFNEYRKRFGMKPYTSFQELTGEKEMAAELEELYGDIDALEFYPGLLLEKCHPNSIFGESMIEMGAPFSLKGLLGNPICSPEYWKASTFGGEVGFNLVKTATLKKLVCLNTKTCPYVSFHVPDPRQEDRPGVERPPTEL
# Protocol: as §1
# [1] = tested on: adjuvant-induced footpad edema; assay: Adjuvant assay (adjuvant-induced footpad edema); type: in vivo; settings: Male Lewis rats; 3 mg/kg, po; dosing day 14 to day 21 post-adjuvant
# Protocol: This assay is a model for chronic inflammation. See, for example, […], “Rat Adjuvant Arthritis: A Model of Chronic Inflammation,” Pharmacological Methods in the Control of Inflammation, 363-380 (1989) and references cited therein. In this assay, Male Lewis rats weighing between 180-220 g were lightly anesthetized with an ip injection of 30 mg/kg of sodium pentobarbital (50 mg/mL). Desiccated Mycobacterium butyrium (Difco, 20 mg/mL) suspended in mineral oil was injected (50 μL) at both sides of the base of the tail under the skin. A line was tattooed on both rear paws at 5 mm above the angle of the ankle. The paw volumes, under the line, were measured by volume displacement using a plethysmonmeter (Ugo Basile) at the day of adjuvant injection (day 0) and on day 14. On day 14, animals with paw volumes equal to the mean of paw volumes±SD were randomized into treatment groups. Rats which fell outside±1 SD were not used in the experiment. […] Dosing began on day 14, and continued until final assessment on day 21 post-adjuvant injection. […] This group has a slightly positive volume increase when paw volumes on day 21 are subtracted from day 0 values due to growth of the rat. […] Compounds reducing paw volume by at least about 30% compared to vehicle control group were considered effective in this test.
smiles,measurement,setting,value
"CC(=O)Oc1c(C(C)(C)C)cc(/C=[N+](\[O-])C(C)(C)C)cc1C(C)(C)C [Example 1, α-(4-Acetoxy-3,5-di-tert-butylphenyl)-N-tert-butylnitrone]",Inhibition of COX-2,cyclooxygenase 2 (COX-2),did not significantly affect
same,Inhibition of COX-1,cyclooxygenase 1 (COX-1),did not significantly affect
"CCC(=O)Oc1c(C(C)(C)C)cc(/C=[N+](\[O-])C(C)(C)C)cc1C(C)(C)C [Example 8, α-(4-propionyloxy-3,5-di-tert-butylphenyl)-N-tert-butylnitrone]",melting point,,202 to 222 °C
"CC(=O)Oc1c(C(C)(C)C)cc(/C=[N+](/C)[O-])cc1C(C)(C)C [Example 9, α-(4-acetoxy-3,5-di-tert-butylphenyl)-N-methylnitrone]",melting point,,136 to 143 °C
COc1ccc2c(c1)c(CC(=O)O)c(C)n2C(=O)c1ccc(Cl)cc1 [indomethacin],Paw volume compared to vehicle controls,[1],significantly reduced paw volume
